# Source: US8119651B2, “Compositions useful especially for treatment or prevention of metabolic syndrome” (Biotie Therapies Corp., priority 2004, dated 2012)
# Values joined by “and” are separate entries in the source; they are usually repeats but may differ in a detail not shown here. Equal entries are not always repeated. Where two headings read alike, the source gives them in different places.
# Legend:
# [1] = biological target: T1, amine oxidase, copper containing 3 (AOC3) (Homo sapiens, UniProt Q16853); experiment: Enzyme inhibiting activity of FP-1113 versus thiamine (FIG. 3)
# T1 sequence (Q16853 1-763): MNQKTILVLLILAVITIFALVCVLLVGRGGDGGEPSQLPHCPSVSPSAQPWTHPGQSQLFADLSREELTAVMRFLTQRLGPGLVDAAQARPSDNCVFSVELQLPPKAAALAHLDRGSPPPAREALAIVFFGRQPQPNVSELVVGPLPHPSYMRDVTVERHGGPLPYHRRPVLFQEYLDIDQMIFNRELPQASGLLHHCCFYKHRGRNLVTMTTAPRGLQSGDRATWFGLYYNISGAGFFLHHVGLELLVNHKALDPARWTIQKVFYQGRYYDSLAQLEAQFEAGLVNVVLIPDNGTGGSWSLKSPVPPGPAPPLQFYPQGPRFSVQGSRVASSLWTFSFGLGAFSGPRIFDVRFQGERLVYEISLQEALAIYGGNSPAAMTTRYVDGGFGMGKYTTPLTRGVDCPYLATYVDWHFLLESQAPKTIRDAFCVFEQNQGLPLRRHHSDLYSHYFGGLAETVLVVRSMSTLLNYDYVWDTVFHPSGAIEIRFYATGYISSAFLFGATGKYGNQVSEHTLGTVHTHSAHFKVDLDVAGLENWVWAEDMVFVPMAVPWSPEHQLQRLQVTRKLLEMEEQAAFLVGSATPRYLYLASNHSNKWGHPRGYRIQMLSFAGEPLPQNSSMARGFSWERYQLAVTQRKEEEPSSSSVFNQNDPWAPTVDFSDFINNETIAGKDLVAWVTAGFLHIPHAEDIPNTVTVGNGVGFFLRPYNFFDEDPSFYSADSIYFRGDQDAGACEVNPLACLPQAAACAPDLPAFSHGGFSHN
# Description: The enzyme inhibiting activity was tested as described above.
# [2] = biological target: T2, SSAO activity of VAP-1 transfected CHO cells (Homo sapiens, UniProt Q16853); experiment: Fluorometric detection of SSAO-mediated H2O2 formation (Amplex Red); assay type: cell-based; details: for Inhibition of SSAO activity (controls): 1 mg/ml, VAP-1 transfected CHO cells
# T2 construct: expressed in transfected cells; host or cells: CHO cells
# T2 sequence (Q16853 1-763): T1 sequence (Q16853 1-763)
# Description: Molecular Probes Europe BV), a highly sensitive and stable probe for H2O2. […] Catalytic reaction was initiated by addition of benzylamine as substrates and H2O2-detecting mixture containing horseradish peroxidase (final concentration 0.8 U/ml) and Amplex Red reagent (60 μM). The plates were incubated for 1-2 hours at 37° C. in the final volume of 250 μl, the bathing medium was clarified by centrifugation and placed in aliquots (200 μl) into white non-phosphorescent microplates (Cliniplate). Fluorescence intensity of the samples was measured (excitation, 545 nm; emission, 590 nm; Tecan ULTRA fluoropolarometer) and H2O2 concentration was calculated from calibration curves generated by serial dilutions of either standard H2O2 or resorufin, the product of the Amplex Red reaction (Molecular Probes).
# serum VAP-1/SSAO [3] = biological target: serum VAP-1/SSAO (Homo sapiens, UniProt Q16853)
# Description: Amine oxidase activity was assayed radiochemically using [7-^14C]-benzylamine hydrochloride (spec. act. 57 mCi/mmol, Amersham) as a substrate and 25 microliters of serum. […] Potential inhibition of serum VAP-1/SSAO enzymatic activity was measured in presence of indicated concentrations of thiamine. Finally, enzymatic activity of serum VAP-1/SSAO of six volunteers was measured before and after eating vitamin B1 100 mg/day for 5 to 9 days. Similarly serum VAP-1/SSAO activity of four volunteers eating benfothiamine 200 mg/day for four days was measured.
# serum VAP-1/SSAO [4] = biological target: T3, serum VAP-1/SSAO (Homo sapiens, UniProt Q16853); experiment: Serum VAP-1/SSAO enzymatic activity of volunteers before and after oral intake
# T3 sequence (Q16853 27-763 limits assumed): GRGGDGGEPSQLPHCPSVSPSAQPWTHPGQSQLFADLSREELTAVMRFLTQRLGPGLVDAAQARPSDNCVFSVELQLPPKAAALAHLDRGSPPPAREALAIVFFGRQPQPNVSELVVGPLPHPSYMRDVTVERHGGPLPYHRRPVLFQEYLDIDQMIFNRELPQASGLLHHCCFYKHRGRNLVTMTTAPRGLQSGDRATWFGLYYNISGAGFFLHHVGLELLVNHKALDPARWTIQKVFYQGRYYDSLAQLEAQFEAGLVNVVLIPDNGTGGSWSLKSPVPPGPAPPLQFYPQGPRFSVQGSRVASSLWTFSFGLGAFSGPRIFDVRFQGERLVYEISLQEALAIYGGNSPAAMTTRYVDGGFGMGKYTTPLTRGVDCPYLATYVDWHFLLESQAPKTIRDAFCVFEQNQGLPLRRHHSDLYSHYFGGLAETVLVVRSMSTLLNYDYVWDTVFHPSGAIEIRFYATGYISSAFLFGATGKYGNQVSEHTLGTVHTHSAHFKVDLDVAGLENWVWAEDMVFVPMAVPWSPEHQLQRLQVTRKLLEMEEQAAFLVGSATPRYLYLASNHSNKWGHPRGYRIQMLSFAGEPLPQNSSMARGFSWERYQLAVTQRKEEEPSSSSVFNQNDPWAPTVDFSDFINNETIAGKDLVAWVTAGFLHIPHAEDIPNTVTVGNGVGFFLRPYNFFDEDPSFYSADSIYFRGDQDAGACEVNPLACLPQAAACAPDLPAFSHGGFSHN
# mice [5] = experiment: Glycosylated hemoglobin (HbAlc) in blood of fasted mice; assay type: in vivo; details: oral methylamine supplementation, 57-59 week old mice
# Description: The increases in blood glucose over fasting blood glucose levels at 30, 60, 90, and 120 minutes after glucose challenge (2.0 g IP glucose/kg body weight) are expressed as mean+SEM. (A) Glucose challenge of 26 week old non-transgenic (open symbols) and mTIEhVAP-1 transgenic mice (filled symbols) with normal tap water (solid lines) or with methylamine supplemented water (dashed lines). Significant effects on the rate of glucose clearance were identified by comparing the areas under the curve (AUC) of individual mice with an ANOVA (methylamine p=0.0002 and methylamine/transgene interaction p=0.046) and by comparing glucose levels at individual time points with unpaired Student's t-tests (asterisks, p<0.01 versus non-transgenic mice with normal water; crosses, p<0.02 versus non-transgenic mice with methylamine). (B) Glucose challenge of 10-12 week old transgenic mice with normal tap water (solid line) followed by 16 days of treatment with methylamine supplemented water (squares and dashed lines), and methylamine supplemented water as well as SSAO inhibitor injections (triangles and dashed lines). […] (C) The mean±SEM percent of glycosylated hemoglobin (HbAlc) was determined from the blood of fasted, 57-59 week old non-transgenic (white bars) and transgenic (black bars) mice with (gray strips) or without oral methylamine supplementation. […]
# mice [6] = experiment: Systolic arterial blood pressure and heart rate, tail cuff method; assay type: in vivo; details: methylamine supplementation
# Description: Systolic arterial blood pressure and heart rate were measured in all of the groups using the tail cuff method. […] A trend for elevated blood pressure was also found with the transgene alone.
# [7] = test system: mTIEhVAP-1 transgenic mice; experiment: Glucose challenge of mTIEhVAP-1 transgenic and non-transgenic mice; assay type: in vivo; details: methylamine supplemented water; 2.0 g IP glucose/kg
# Description: The increases in blood glucose over fasting blood glucose levels at 30, 60, 90, and 120 minutes after glucose challenge (2.0 g IP glucose/kg body weight) are expressed as mean±SEM. FIG. 1A: Glucose challenge of 26 week old non-transgenic (open symbols) and mTIEhVAP-1 transgenic mice (filled symbols) with normal tap water (solid lines) or with methylamine supplemented water (dashed lines). FIG. 1B: Glucose challenge of 10-12 week old transgenic mice with normal tap water (solid line) followed by 16 days of treatment with methylamine supplemented water (squares and dashed lines), and methylamine supplemented water as well as SSAO inhibitor injections (triangles and dashed lines). FIG. 1C: The mean±SEM percent of glycosylated hemoglobin (HbAlc) was determined from the blood of fasted, 57-59 week old non-transgenic (white bars) and transgenic (black bars) mice with (gray strips) or without oral methylamine supplementation. […]
# The increases in blood glucose over fasting blood glucose levels at 30, 60, 90, and 120 minutes after glucose challenge (2.0 g IP glucose/kg body weight) are expressed as mean+SEM. […] (C) The mean±SEM percent of glycosylated hemoglobin (HbAlc) was determined from the blood of fasted, 57-59 week old non-transgenic (white bars) and transgenic (black bars) mice with (gray strips) or without oral methylamine supplementation. […]
# mice [8] = experiment: Aorta surface area positive for Oil Red O staining (atherosclerosis); assay type: in vivo; details: methylamine supplementation, versus untreated controls
# Description: The percentage of aorta surface area positive for Oil Red O staining was determined for the mice in each group.
# [9] = volunteers, 100 mg/day for 5 to 9 days
molecule,measurement,setting,value
"Cc1c(CCO)sc[n+]1Cc1ccccc1N.Cl.[Cl-] [FP-1113, 3-(2-aminobenzyl)-5-(2-hydroxyethyl)-4-methyl-thiazolium Chloride Hydrochloride]",SSAO inhibition compared with thiamine,[1],stronger SSAO-inhibitor than thiamine
"Cc1ncc(C[n+]2csc(CCO)c2C)c(N)n1 [Thiamine, thiamine]",inhibition at 63 µg/mL,"[2]; CHO, thiamine 63 μg/ml, VAP-1 transfected cells",10.5 ± 8.5%
same,inhibition at 125 µg/mL,"[2]; CHO, thiamine 125 μg/ml, VAP-1 transfected cells",26.5 ± 11%
same,inhibition at 175 µg/mL,"[2]; CHO, thiamine 175 μg/ml, VAP-1 transfected cells",35.5 ± 2.5%
same,inhibition at 250 µg/mL,"[2]; CHO, thiamine 250 μg/ml, VAP-1 transfected cells",42 ± 2%
same,inhibition at 375 µg/mL,"[2]; CHO, thiamine 375 μg/ml, VAP-1 transfected cells",47 ± 9%
same,inhibition at 500 µg/mL,"[2]; CHO, thiamine 500 μg/ml, VAP-1 transfected cells",61.5 ± 2.5%
same,Decrease of serum VAP-1/SSAO activity in vitro,serum VAP-1/SSAO [3]; 1 mg/ml,87%
same,Decrease of serum VAP-1/SSAO activity in vitro,serum VAP-1/SSAO [3]; 200 micrograms/ml,32%
same,Decrease of serum VAP-1/SSAO activity in vitro,serum VAP-1/SSAO [3]; 400 micrograms/ml,39%
same,Decrease of serum VAP-1/SSAO activity in vitro,serum VAP-1/SSAO [3]; 800 micrograms/ml,70%
same,"Decrease of VAP-1 enzyme activity at the end of the experiment, mean of responders",serum VAP-1/SSAO [4]; [9],19%
same,Volunteers responding,serum VAP-1/SSAO [4]; [9],Four of the six volunteers responded
same,"Decrease of VAP-1 enzyme activity at the end of the experiment, individual responders","serum VAP-1/SSAO [4]; volunteers, 100 mg/day for 5 to 9 days, listed as vitamin B1",25% and 2% and 32% and 16%
CC1(C)S[C@@H]2[C@H](NC(=O)[C@H](N)c3ccccc3)C(=O)N2[C@H]1C(=O)O [ampicillin],Inhibition of SSAO activity (controls),[2],did not inhibit the activity
"C/C(=C(\CCOP(=O)(O)O)SC(=O)c1ccccc1)N(C=O)Cc1cnc(C)nc1N [benfothiamine, benfotiamine]","Decrease of SSAO activity, each individual","serum VAP-1/SSAO [4]; four volunteers, 200 mg/day for four days",9% and 24% and 8% and 27%
CN [methylamine],HbAlc levels,mice [5],decreased
same,Heart rate,mice [6],did not affect heart rate
same,Systolic arterial blood pressure,mice [6],significantly elevated blood pressure
same,Glucose tolerance after glucose challenge,[7],enhance glucose tolerance
same,Percentage of lesion formation in aorta,mice [8],increased the percentage of lesion formation
penicillin,Inhibition of SSAO activity (controls),[2],did not inhibit the activity
